The subject of data set [1] is P. falciparum 3D7. On the set-up: method as in PMID 33333397. The conditions noted are these: literature compounds of Figure 2; read-out: IC50 against the 3D7 strain; cited from earlier work.
Data set [2] in a line: Experimental log P, shake-flask method n-octanol/water. The class given is physicochemical. As to conditions: 25 ± 1 °C. Here is the method:
The mixture was then allowed to stand for 24 h at the same temperature for further phase separation. A stock solution with a concentration of 0.01 mol per liter in water, pre-saturated with n-octanol, was prepared for each compound. Duplicate test vessels containing a mixture of the stock solution and n-octanol (pre-saturated with water) were shaken on a vortex shaker for 5 min. Phase separation was achieved by centrifugation of the vessels for 3 min at 4000× g (25 ± 1 °C), and the concentration of the solute in the water phase (C water) was measured from their absorbance at 205 nm using a UV spectrophotometer. The partition coefficient was calculated using the following equation. Log Po/w = Log(C n-octanol/C water)
All the measurements were carried out at room temperature (25 ± 1 °C). In order to check the performance of the method, aniline was used as a reference substance.

Data set [3] concerns Plasmodium falciparum FCR-3 (chloroquine-resistant). As to the kind of experiment: In vitro antiplasmodial screening, parasitemia by flow cytometry. On the set-up: Plasmodium falciparum FCR-3 Growth Inhibition (%): concentration or dose not given beside the values. The class given is cell-based. As to conditions: FCR-3 chloroquine-resistant, 48 h; for Plasmodium falciparum FCR-3 Growth Inhibition (%): mean ± SD; for IC50: Plasmodium falciparum, FCR3, read-out: Plasmodium falciparum FCR-3 IC50. The procedure:
(§1) The antimalarial activity assay was performed using Plasmodium falciparum 3D7 (chloroquine-sensitive) and FCR-3 (chloroquine-resistant) reference strains, which were cultured in vitro following the method described by Trager et al. with some modifications.
(§2) The experiments were performed in 96-well culture plates, where the stock solutions of compounds 1–12 (1, 0.1, 0.01, and 0.001 µg/mL) were tested. A total of 100 µL of each product was distributed in triplicate on the culture plates, and 100 µL of a red blood cell suspension (4% hematocrit, final parasitemia of 1% ring stage) was added, resulting in a final volume of 200 µL. The test plates were incubated at 37 °C for 48 h, and parasitemia was determined by flow cytometry (BDFACScalibur). Erythrocytes were taken from each well culture plate, and 100 µL of ethidium bromide (10 µg/mL) was added and incubated for 30 min. A total of 100,000 cells per well culture plate were acquired and analyzed. The IC50 of the pure products was determined by a regression curve of the percentage inhibition of parasite activity as a function of the logarithmic dose. Chloroquine diphosphate was used as the reference drug.
Background: Flow cytometry measures light scatter and fluorescence of single cells or particles in a stream.

Data set [4] relates to Staphylococcus aureus (ATCC 25923). In words: Minimum inhibitory concentration, broth dilution method. The class given is cell-based. As to conditions: triplicate; for MIC: Staphylococcus aureus, ATCC25923, broth dilution, read-out: MIC S. aureus G+. Here is the method: (§3) The microorganisms used were Staphylococcus aureus (ATCC 25923), Proteus mirabilis (ATCC 12453) Enterococcus faecalis (ATCC 29212), Escherichia coli (ATCC 25922), Salmonella typhimurium (ATCC 19585), and Klebsiella pneumoniae (ATCC 700603).
(§4) The antimicrobial activity of the phenylaminonaphthoquinones 1–12 was determined by the broth dilution method. The following concentrations were tested: 200, 100, 50, 25, and 12.5 μg/mL. After incubation, the microbial growth was examined. The results are expressed in minimum inhibitory concentration (MIC), the lowest concentration of phenylaminonaphthoquinones with no visible growth. The bactericidal/bacteriostatic activity was determined by sub-cultivation of the samples in normal culture media at appropriate temperatures and incubation times. The MIC of each compound was performed in triplicate. The compounds 1–12 were dissolved in DMSO. Cefazolin and cefotaxime were used as positive controls at the same compound concentrations.

Data set [5] deals with Klebsiella pneumoniae (ATCC 700603). The data set is described as above. In kind it is cell-based. The conditions noted are these: ATCC700603, broth dilution, triplicate, read-out: MIC K. pneumonia G−. The procedure:
as §3, §4

The test system of data set [6] is Enterococcus faecalis (ATCC 29212). The data set is described as above. In kind it is cell-based. As to conditions: ATCC29212, broth dilution, triplicate, read-out: MIC E. faecalis G+. The procedure: as §3, §4
Data set [7] deals with Escherichia coli (ATCC 25922). The data set is described as above. The class given is cell-based. The conditions noted are these: ATCC25922, broth dilution, triplicate, read-out: MIC E. coli G−. Here is the method: as §3, §4
(In general: In broth dilution the organism is exposed to a series of concentrations in liquid medium.)

Data set [8] deals with Proteus mirabilis (ATCC 12453). The description is as above. The class given is cell-based. As to conditions: ATCC12453, broth dilution, triplicate, read-out: MIC P. mirabilis G+. The procedure:
as §3, §4

Data set [9] has as its system Salmonella typhimurium (ATCC 19585). Described as above. As to conditions: Salmonella enterica; broth dilution, triplicate; read-out: MIC S. typhimurium G−. In kind it is cell-based. Here is the method:
as §3, §4

Data set [10] relates to Plasmodium falciparum 3D7 (chloroquine-sensitive). In words: In vitro antiplasmodial screening, parasitemia by flow cytometry. As to conditions: for Plasmodium falciparum 3D7 Growth Inhibition (%): mean ± SD; for IC50: Plasmodium falciparum. Also on record: Plasmodium falciparum 3D7 Growth Inhibition (%): concentration or dose not given beside the values. The class given is cell-based. Here is the method: as §1, §2

The mark [11] stands for this setting: 3D7 chloroquine-sensitive, 48 h.
Setting [12] is: 3D7 chloroquine-sensitive, 48 h, read-out: Plasmodium falciparum 3D7 IC50.

Converted amounts (≈) assume the structure as drawn. Where two headings read alike, the source gives them in different places.

As for `NC1=CC(=O)c2ccccc2C1=O` [Compound 2-amino], the IC50 in data set [1] was 5140 nM.

Turning to `Cc1ccccc1NC1=CC(=O)c2ccccc2C1=O` [Compound 3], in data set [2], the logP is 1.89 ± 1.12. Besides, the “Plasmodium falciparum FCR-3 Growth Inhibition (%)” value in data set [3] came to 97.0 ± 0.2%. The IC50 in [3] is 0.12 µg/mL (≈ 0.456 µM); in [10] (3D7, read-out: IC50 against 3D7 strain at equimolar concentrations), 18.6 nM; in data set [10] (setting [12]), 0.0049 µg/mL. Also, the MIC is 3.2 to 5.7 µg/mL (≈ 12.2 to 21.6 µM) in data set [4]; 26.3 µg/mL (≈ 99.9 µM) in data set [5]; 50 µg/mL (≈ 190 µM) in data set [6]; 25.5 µg/mL (≈ 96.8 µM) in [7]; 19.9 µg/mL (≈ 75.6 µM) in [8]; 13.2 µg/mL (≈ 50.1 µM) in [9]. Also, the “MIC S. aureus G+” value in [4] (broth dilution) stood at 3.8 µg/mL (≈ 14.4 µM). Moreover, the “Plasmodium falciparum 3D7 Growth Inhibition (%)” value in data set [10] (setting [11]) is 98.0 ± 1.0%. Besides, in [10] (3D7 strain, equimolar comparison), the “Enhancement of antiplasmodial activity versus literature 2-amino/2-phenylaminonaphthoquinones” value is given as “more than 250 fold”. Besides, the “Potency relative to chloroquine against 3D7 strain” value in data set [10] (IC50 0.0049 vs 0.06 μg/mL) is “more than 10 fold”.

In [2], `O=C1C(Cl)=C(Nc2ccc(O)cc2)C(=O)c2ccccc21` [Compound 6] displayed a logP of 1.22 ± 0.13. Besides, in data set [3], the “Plasmodium falciparum FCR-3 Growth Inhibition (%)” value is 56.0 ± 3.0%. In addition, the IC50 in [3] was 0.87 µg/mL (≈ 2.9 µM); in [10] (setting [12]) it was > 1 µg/mL. Moreover, the MIC in data set [4] was 19.6 µg/mL (≈ 65.4 µM); in data set [5], 40 µg/mL (≈ 133 µM); in data set [6], 49.9 µg/mL (≈ 166 µM); in data set [7], 39.8 µg/mL (≈ 133 µM); in [8], 29.9 µg/mL (≈ 99.8 µM); in data set [9] it was 20 µg/mL (≈ 66.7 µM). Moreover, in data set [10] (setting [11]), the “Plasmodium falciparum 3D7 Growth Inhibition (%)” value was 41.0 ± 2.0%.

For `COc1ccc(OC)c(NC2=CC(=O)c3ccccc3C2=O)c1` [Compound 9], the logP in [2] amounted to 1.6 ± 0.23. For the same compound, in [3], the “Plasmodium falciparum FCR-3 Growth Inhibition (%)” value is 24.0 ± 2.0%. The IC50 in data set [3] and in [10] (setting [12]) was > 1 µg/mL each time. Further, the MIC in data set [4] was > 50 µg/mL; in data set [5], > 50 µg/mL; in data set [6], 38.2 µg/mL (≈ 123 µM); in data set [7] it was > 50 µg/mL; in [8] it was 29.9 µg/mL (≈ 96.7 µM); in data set [9], 43.8 µg/mL (≈ 142 µM). Moreover, in [10] (setting [11]), the “Plasmodium falciparum 3D7 Growth Inhibition (%)” value is reported as 33.0 ± 1.0%.

The logP is a log measure of how a compound divides between an organic and an aqueous phase. The term MIC denotes the lowest concentration that inhibits growth of the organism.
